Data as given in PMC7669869, “AdipoR1/AdipoR2 dual agonist recovers nonalcoholic steatohepatitis and related fibrosis via endoplasmic reticulum-mitochondria axis” (Nature Communications, 2020).
Where “and” joins values, the source holds several entries; their conditions need not be identical. Identical values can stand only once. Like-named read-outs stand apart in the source and are kept apart here. Non-standard residues stand in square brackets, D forms with d. Residues, ends and D or L forms follow the SMILES beside them. No end group written: not given here. Nva = CCC[C@H](N)C(=O)O

Experiments:
[1] = system: CCl4 induced liver fibrosis mice; experiment: CCl4 induced liver fibrosis mice: liver appearance, body weight, HE, Sirius red, IHC (αSMA, COL1α1, CD68); type: in vivo, mouse; conditions: CCl4 induced liver fibrosis mice; administration dosages of 0.5 mg kg−1 and 2 mg kg−1; in words
Method: Male mice liver fibrosis was induced by intraperitoneal injection of 20% CCl4 (Sigma, USA) diluted in corn oil (Aladdin, China) every 3 days for 6 weeks (n = 6; 5 ml kg^−1 body weight). Mice injected with equivalent volume of corn oil serves as control group (n = 6). Liver fibrosis mice treated with JT003 for 3 weeks were used to evaluated the pharmacological effects (n = 6; 500 μg kg^−1; daily intraperitoneal injection).
The levels of TG and HYP in liver tissue were detected with certain commercial assay kit (Nanjing Jiancheng Bioengineering Institute, China). Formalin-fixed liver tissues were embedded in paraffin, sectioned into 5 μm slices. After deparaffinization and rehydration of the section slices, they were stained with Haematoxylin and Eosin or Periodic Acid-Schiff. For the detection of liver collagen content, Sirius Red staining for collagen was performed. OCT-embedded frozen liver tissues were sectioned into 12 μm slices, and Oil Red O staining was performed. The cryostat-cut slices were stained with freshly prepared Oil Red O working solution for 7 min Two independent experimenters who were blinded to the treatment evaluated the staining slides and analyzed the score for steatosis, glucogen accumulation and collagen proliferation area.
Paraffin-embedded liver slices were deparaffinized and rehydrated, antigen retrieval was performed under the high pressure and temperature in 0.01 M sodium citrate buffer (pH = 6.0). To quench the endogenous peroxidase activity, the slices were then incubated with 1% hydrogen peroxide in methanol for 10 min in room temperature. Then slices were incubated with corresponding primary antibodies. After washing, HRP-conjugated secondary antibodies specific to the species of the primary antibodies were used. After the section were developed with DAB, hematoxylin staining was performed for cell counting.

[2] = Pharmacokinetic assay in SD rats; type: in vivo, rat
Method: Male SpragueDawley (SD) rats were randomly divided into two groups (n = 3 per group) and received a single intravenous dose of JT003 (0.5 mg/kg) or ADP355 (1.0 mg kg^−1) respectively. Blood samples were collected at 5, 15, 30, 45 min and 1, 2, 3 h following the injection, and then were immediately centrifuged (4000g, 10 min, 4 °C) to obtain plasma samples. Plasma concentrations of the two peptides were measured by LC-MS/MS (ThermoFisher Scientific, USA). Pharmacokinetic parameters of JT003 and ADP355 were calculated using non-compartmental analysis in Phoenix WinNonlin (version 8.0, Pharsight, USA). The concentration values less than the LLOQ were set to zero for the analysis.

[3] = system: HepG2 cells; experiment: PA induced lipid accumulation, Oil Red O staining; type: cell-based, human; conditions: HepG2, 0.25 mM PA + 200 μM peptide, 24 h; in words
Method: Hepatoma carcinoma cell line HepG2 and human hepatic activated stellate cell line LX2 used in this study were purchased from Type Culture Collection of the Chinese Academy of Sciences (Shanghai, China). Cells were cultured in Dulbecco’s modified Eagle’s medium (DMEM) with 10% fetal bovine serum (FBS), supplemented with 1% penicillin–streptomycin (ThermoFisher Scientific, USA) at 37 °C in a humidified atmosphere of 5% CO2. In PA (Sigma, USA) induced lipid accumulation cell model, HepG2 cells were seeded into a 6-well plate at 5E5 cells per well. 0.25 mM PA and/or 200 μM candidate peptides were co-incubated with cells for 24 h. Then Oil Red O staining was performed to evaluate the accumulation of lipid droplets. BSA (Sigma, USA) was used in this experiment as the negative control. For LX2 cells, 2E5 cells were seeded, then the adherent cells were exposed to 200 μM candidate peptides for another 48 h. Next, the cell protein was obtained and western blotting was performed. Candidate peptides were diluted in DMEM in a stock concentration of 1 M.

[4] = system: AdipoR1 and AdipoR2 on HepG2 and LX2 cells; experiment: Cell confocal imaging, receptor binding of FITC labeled peptide (with AdipoR siRNA); set-up: species or system human; conditions: 37 °C, 2 or 4 h, AdipoR1/AdipoR2 siRNA as control, in words
Method: For in vitro receptor binding assay, 4E4 HepG2 cells or 2E4 LX2 cells were seeded on 35 mm glass bottom dish with 150 μL complete medium. Then cells were incubated with FITC labeled peptide for 4 h. The nuclei were stained with Hoechst 33342 (ThermoFisher, Scientific, USA). After washing with PBS, cells were visualized in a laser confocal microscope (Olympus FV3000, Japan). Cells with suppressed AdipoR1 and AdipoR2 expression with each specific siRNA were used as negative control.
AdipoR1 and AdipoR2 siRNA as well as mock siRNA were chemically synthesized (GenePharma, China) and transfected into 60–70% confluent HepG2 and LX2 cells using Lipofectamine 3000 (ThermoFisher Scientific, USA). Dilution of siRNA and Lipofectamine 3000 reagents as well as the transfection of cells were performed following the manufacturer’s protocol. For HepG2 cell model, 5E5 cells were plated in 6-well plates and transfected with 5 μL of 20 μM stock siRNA. At 48 h following transfection, the cells were processed for 0.25 mM PA and/or 200 μM JT003 treated for another 24 h. BSA was used as the negative control. For LX2 cell model, 2E5 cells were plated in 6-well plates and transfected with 5 μL of 20 μM stock siRNA. At 48 h following transfection, the cells were processed for JT003 or PBS treated for another 48 h. Next, cells were harvested for either western blot or qPCR assay.

[5] = Serum stability assay (RP-HPLC); type: in vitro ADME; conditions: for Fraction of peptide remaining, Supplementary Figure 5: mouse serum, time 0 (unit not given); for remaining at 0.5 h, 5 mM: time 0.5 (unit inferred); for remaining at 1 h, 5 mM: time 1 (unit inferred); for remaining at 1.5 h, 5 mM: time 1.5 (unit inferred); for remaining at 2 h, 5 mM: time 2 (unit inferred); for remaining at 2.5 h, 5 mM: time 2.5 (unit inferred); for remaining at 4 h, 5 mM: time 4 (unit inferred); for remaining at 6 h, 5 mM: time 6 (unit inferred)
Method: The stability of candidate peptides was investigated following procedure. […] Ice-cold acetonitrile was added to terminate the reaction. Vortex and stand for 1 min, deionized water with 1% TFA was added to the mixture to further terminate the reaction. Mixtures were then centrifuged (13,000g, 10 min) to obtain the supernatant. RP-HPLC-MS was applied to analysis the content of candidate peptides. The serum stability of candidate peptides was represented as the retention rate of each peptide.

[6] = Sprague-Dawley, rat, male SD rats, single iv dose: JT003 0.5 mg/kg, ADP355 1.0 mg/kg, plasma, LC-MS/MS, non-compartmental, Mean ± SD, n = 3-6
[7] = mouse, replicate 1, read-out: Fraction of peptide remaining, Supplementary Figure 5
[8] = mouse, replicate 2, read-out: Fraction of peptide remaining, Supplementary Figure 5
[9] = mouse, replicate 3, read-out: Fraction of peptide remaining, Supplementary Figure 5

In the case of CCC[C@H](NC(=O)[C@@H]1CCCN1C(=O)[C@@H](NC(=O)[C@H](N)CC(N)=O)[C@@H](C)CC)C(=O)N[C@@H](CC(C)C)C(=O)N[C@@H](Cc1ccc(O)cc1)C(=O)N[C@H](CO)C(=O)N[C@@H](Cc1ccccc1)C(=O)N[C@@H](C)C(=O)N[C@H](CO)C(N)=O [ADP355] (H-[dN]IP[Nva]LY[dS]FA[dS]-NH2; N-terminus and C-terminus assumed), the “inflammation, necrosis and fibrosis area (HE and sirius red staining)” value [1] is reported as “not notably raised”, the “time for which plasma concentrations were measurable” value ([2]; SD rats, after intravenous administration, ADP355 1.0 mg/kg) is reported as 45 min and the half-life ([2]; SD rats, iv, authors' response to reviewers) is reported as 6 min. The AUC(0-inf) [2, 6] was 134 ± 19.9 ng·h/mL, the AUC(0-t) [2, 6] was 134 ± 19.9 ng·h/mL and the MRT [2, 6] was 5.4 ± 0.6 min. For the same compound, the clearance [2, 6] was 126 mL/min/kg, the Vd ([2]; Sprague-Dawley, rat, male SD rats, single iv dose: JT003 0.5 mg/kg, ADP355 1.0 mg/kg, plasma, LC-MS/MS, non-compartmental, Mean ± SD, n = 3-6, read-out: V) was 1.06 ± 0.21 L/kg and the t1/2 ([2]; male SD rats, single iv dose: JT003 0.5 mg/kg, ADP355 1.0 mg/kg, plasma, LC-MS/MS, non-compartmental, Mean ± SD, n = 3-6 (n = 3 per group)) was 6 ± 0.6 min and 6 min. For the same compound, the “lipid droplets accumulation caused by PA (Oil Red O)” value [3] was “could be reduced”.
For CCC[C@H](NC(=O)[C@@H]1CCCN1)C(=O)N[C@@H](CC(C)C)C(=O)N[C@@H](Cc1ccc(O)cc1)C(=O)N[C@@H](CO)C(=O)N[C@@H](Cc1ccccc1)C(=O)N[C@@H](CC(=O)O)C(N)=O [JT006] (H-P[Nva]LYSFD-NH2), the “binding to AdipoRs on the cell membrane (confocal, FITC)” value [4] was “could not bind to the AdipoRs specifically” and the “lipid droplets accumulation caused by PA (Oil Red O)” value [3] was “little prevention of palmitic acid induced lipid droplets”.
In the case of “PGLYYFD-NH2 (C-terminus assumed) [Pep70]”, the “Fraction of peptide remaining, Supplementary Figure 5” value (shortened to “Fraction of peptide remaining”) ([5]; replicate 1) is reported as 0.9901, the “Fraction of peptide remaining” value ([5]; replicate 2) is reported as 1.005 and the “Fraction of peptide remaining” value ([5]; replicate 3) is reported as 0.9939. The remaining at 0.5 h, 5 mM [5, 7] was 96.7%, the remaining at 0.5 h, 5 mM [5, 8] was 98.6% and the remaining at 0.5 h, 5 mM [5, 9] was 94.9%. For the same compound, the remaining at 1 h, 5 mM [5, 7] was 82.5%, the remaining at 1 h, 5 mM [5, 8] was 84% and the remaining at 1 h, 5 mM [5, 9] was 83.1%. It also gave a remaining at 1.5 h, 5 mM [5, 7] of 80.8%, a remaining at 1.5 h, 5 mM [5, 8] of 82.6% and a remaining at 1.5 h, 5 mM [5, 9] of 83.7%. For the same compound, the remaining at 2 h, 5 mM [5, 7] was 50.5%, the remaining at 2 h, 5 mM [5, 8] was 53.4% and the remaining at 2 h, 5 mM [5, 9] was 47.2%. For the same compound, the remaining at 2.5 h, 5 mM [5, 7] was 26.1%, the remaining at 2.5 h, 5 mM [5, 8] was 27.2% and the remaining at 2.5 h, 5 mM [5, 9] was 27.2%. The remaining at 3 h, 5 mM ([5]; mouse, time 3 (unit inferred), replicate 1, read-out: Fraction of peptide remaining, Supplementary Figure 5) was 29.9%, the remaining at 3.5 h, 5 mM ([5]; mouse, time 3.5 (unit inferred), replicate 1, read-out: Fraction of peptide remaining, Supplementary Figure 5) was 29.3% and the remaining at 4 h, 5 mM [5, 7] was 23.9%. The remaining at 4 h, 5 mM [5, 8] was 24.2%, the remaining at 4 h, 5 mM [5, 9] was 23.5% and the remaining at 6 h, 5 mM [5, 7] was 2.28%. For the same compound, the remaining at 6 h, 5 mM [5, 8] was 2.13% and the remaining at 6 h, 5 mM [5, 9] was 2.33%.
